Source: article PMC4309801, “Angiotensin Converting Enzyme Inhibitors (ACEI) and doxorubicin pharmacokinetics in women receiving adjuvant breast cancer treatment” (SpringerPlus, 2015)
Like-named read-outs stand apart in the source and are kept apart here.

Legend:
[1] = cited from earlier work; for Incidence of symptomatic heart failure: ref Singal and Iliskovic [1998], Yeh et al. [2004], Muggia and Speyer [1999]; for Incidence of asymptomatic declines in ejection fraction: up to, ref Lenihan and Cardinale [2012]
[2] = female, human, in vivo
Description: (§1) Doxorubicin (60 mg/m^2) was administered as an IV infusion over 5–10 minutes followed by an infusion of cyclophosphamide 600 mg/m^2 over 30–60 minutes every two weeks for a total of four cycles (cumulative doxorubicin 240 mg/m^2). All subjects received aprepitant, dexamethasone and palonsetron prior to each infusion of doxorubicin. All subjects received pegfilgrastim subcutaneously 24–72 hours after doxorubicin and cyclophosphamide.
(§2) This was a randomized, cross-over, single-blinded drug-drug interaction study. All patients received one cycle of AC chemotherapy with enalapril and another cycle of AC with placebo (without enalapril). The two study cycles were consecutive. Patients were randomized to the enalapril intervention or placebo in cycle 1 with cross-over in the subsequent cycle. They began 5 mg of enalapril daily on day −6, and then increased to 10 mg daily on day −2, prior to doxorubicin administration on day 1.
(§3) Blood samples for pharmacokinetics (doxorubicin and doxorubicinol) were obtained in each subject twice (one cycle with enalapril and one with placebo). Samples were drawn at baseline (immediately prior to start of doxorubicin) and then at 0.5, 1, 2, 4, 24 and 48 hours after the end of infusion. Five milliliters of blood was collected at each sampling time and placed in an EDTA tube for doxorubicin and doxorubicinol analysis. Each sample of whole blood was immediately inverted 10 times, placed on wet ice, centrifuged at 3400 rpm for 10 minutes at 4 degrees C, plasma separated and frozen to −80 degrees C within 15 minutes of collection. Samples remained frozen at −80 degrees C until time of analysis. Samples were batched at the time of analysis.
(§4) Doxorubicin and doxorubicinol plasma concentration-time data were analyzed using noncompartmental methods (WinNonLin Professional 6.3). Area-under-the-curve (AUC) (0-∞) was estimated by the log/linear trapezoidal method as AUC (0-t*) + C(t*)/Ke where C(t*) was the last observed concentration and Ke is the terminal first order elimination rate constant. Ke was calculated as the slope of the linear portion of the log of plasma-concentration vs time curve using linear regression analysis. Cmax was at the highest observed concentration.
(§5) The chromatographic separation was performed with a Waters UPLC BEH C18, 2.1 × 50 mm, reversed phase column with a 1.7-micron particle size (Waters, Milford, MA). The mobile phase used for gradient elution consisted of (A) 5 mM ammonium acetate in water, pH 3.5 (B) methanol. […] The column temperature was maintained at 35°C. […] The collision energy was 14 eV, 12 eV and 25 eV, respectively. […] Cartridges were conditioned with 1 mL methanol followed by 1 mL DI water (18 Mohm.cm, type 1). The cartridges were loaded with the samples and centrifuged at 83 × g for 5 minutes and then washed with 1 mL distilled ionized water, centrifuged and transferred to a vacuum manifold for 5 minutes, and eluted with 1 mL methanol. The eluent was evaporated to dryness using a nitrogen evaporator (Zymark Turbo Vap LV, Hopkinton, MA) set at 37°C, and reconstituted in 100 μL of mobile phase (A:B, 45:55). Doxorubicin and doxorubicinol were obtained from Toronto Research Chemicals (Toronto, Ontario, CAN). Daunorubicin was obtained from Sigma-Aldrich (St. Louis, MO). The assays are linear in the range of 1 – 1,000 ng/mL. […] The lower limit of quantification for both analytes is 1 ng/mL.
(§6) The confidence interval is a measure of the precision of the exposure ratio estimate.

clinical = settings: female, human, in vivo
Description: as §1, §2, §3, §4, §5, §6

[3] = Doxorubicin and doxorubicinol plasma pharmacokinetics with and without enalapril (randomized cross-over drug-drug interaction study); settings: for AUC(0-∞) geometric mean ratio (90% CI) / Cmax geometric mean ratio (90% CI): with versus without enalapril; for Cmax: geometric mean ± standard error, 17 women
Description: as §1, §2, §3, §4, §5, §6

[4] = design: method as in Cardinale et al. [2006]; settings: 12 months after therapy; enalapril 20 mg daily; patients with troponin elevation; placebo 48.3%, p < 0.001; ref Cardinale et al. [2006]; cited from earlier work
[5] = Safety / adverse events in the enalapril-doxorubicin interaction study; type: in vivo, women with breast cancer; settings: enalapril 5 then 10 mg daily with doxorubicin and cyclophosphamide
Description: The two study cycles were consecutive. […] There were no serious or grade 3 or 4 adverse events. The most commonly reported drug-related adverse event was dizziness with 33% experiencing grade 1 dizziness. No clinical cardiac events occurred.

AUC0-∞ ([3]; with enalapril 10 mg daily, doxorubicin 60 mg/m^2 IV, plasma, Table 3 geometric mean ± standard error, text mean (standard error))	Cmax ([3]; with enalapril 10 mg daily, doxorubicin 60 mg/m^2 IV, plasma)	AUC0-∞ ([3]; with enalapril exposure, abstract, Mean (SD))	AUC0-∞ ([3]; without enalapril (placebo cycle), doxorubicin 60 mg/m^2 IV, plasma, Table 3 geometric mean ± standard error, text mean (standard error))	AUC0-∞ ([3]; without enalapril (placebo cycle), doxorubicin 60 mg/m^2 IV, plasma, Table 3 geometric mean ± standard error, text mean (standard error), listed as doxorubicinol)	Cmax ([3]; without enalapril (placebo cycle), doxorubicin 60 mg/m^2 IV, plasma)	AUC0-∞ ([3]; without enalapril, abstract, Mean (SD))	SMILES	Incidence of symptomatic heart failure ([1]; cumulative doses of 400–500 mg/m^2)	Incidence of symptomatic heart failure ([1]; cumulative doses ≥ 600 mg/m^2)	Incidence of asymptomatic declines in ejection fraction ([1]; higher doses)	Incidence of asymptomatic declines in ejection fraction ([1]; moderate doses (240–400 mg/m^2))	AUC0-∞ [2]	AUC(0-inf) (clinical; AUC0-∞)	AUC(0-inf) (clinical; iv, 60 mg/m2, AUC(0-∞))	90% CI for Cmax geometric mean ratio ([3]; reanalysis removing the outlier Cmax (subject with body mass index 53 kg/m^2))	AUC(0-∞) geometric mean ratio (90% CI) [3]	Cmax geometric mean ratio (90% CI) [3]	Left ventricular ejection fraction [4]	Subjects with grade 1 dizziness [5]
–	–	–	–	–	–	–	COc1cccc2c1C(=O)c1c(O)c3c(c(O)c1C2=O)C[C@@](O)(C(=O)CO)C[C@@H]3O[C@H]1C[C@H](N)[C@H](O)[C@H](C)O1 [Doxorubicin]	3-4%	more than 30%	30-35%	20-25%	1167.73 (45.26) hr*ng/ml	1190 ng·h/mL	1640 ng·h/mL	0.94-1.21	1.02(0.96-1.08)	1.19(0.94-1.51)	–	–
1040 ± 80.6 ng·h/mL	27.81 ± 3.59 ng/mL	1040 (80.6) hr*ng/ml	1056.32 ± 92.03 ng·h/mL	1056.3 (92.0) ng-hr/mL	29.66 ± 4.68 ng/mL	1056.32 (92.03) hr*ng/ml	COc1cccc2c1C(=O)c1c(O)c3c(c(O)c1C2=O)C[C@@](O)([C@@H](O)CO)C[C@@H]3O[C@H]1C[C@H](N)[C@H](O)[C@H](C)O1 [Doxorubicinol, doxorubicinol]	–	–	–	–	–	–	–	–	0.96(0.88-1.05)	0.99(0.91-1.08)	–	–
–	–	–	–	–	–	–	CCOC(=O)[C@H](CCc1ccccc1)N[C@@H](C)C(=O)N1CCC[C@H]1C(=O)O [Enalapril, enalapril]	–	–	–	–	–	–	–	–	–	–	62.8%	33%
